The nature of one series: MTT cell viability assay. The class given is cell-based. To be noted: human, MTT, 24 h, concentration required to inhibit cell proliferation by 50%, mean ± SD. The method, then:
(§1) The cytotoxic effect of coumarins 2a–k was tested on several cancer and normal cell lines: lung cancer cell line (SK-MES-1), thyroid cancer cell lines (K-1; B-CPAP ant TPC-1), lung fibroblast (MRC-5) and thyroid normal cell line (Nthy-ori-3-1) by MTT (3-[4,5-dimethylthiazol-2-yl]-2,5 diphenyltetrazolium bromide) assay.
(§2) The papillary thyroid carcinoma (PTC)-derived cell lines (TPC-1 and B-CPAP) were kindly provided by Dr. Fusco (Medical School, University Federico II of Naples, Naples, Italy). K-1 PTC-derived cell line and non-tumorigenic thyroid Nthy-ori-3-1 cell line were purchased from Health Protection Agency Culture Collections. The PTC-derived cell lines were maintained in DMEM/F12 (Gibco-BRL. Life Technologies, Milan, Italy)] supplemented with 10% fetal bovine serum (Gibco-BRL) at 37 °C in humidified 5% CO2. SK-MES-1 and MRC-5 were purchased from American Type Culture Collection (ATCC) and were maintained in Mem-E medium, supplemented with 10% fetal bovine serum, 100 units/mL penicillin G, and 100 μg/mL streptomycin (Gibco-BRL) at 37 °C in humidified 5% CO2.
(§3) The effect of test compounds on the viability of cells was detected by MTT assay. The thyroid cells (7.5 × 10^3 cells/mL), SK-MES-1, and MRC-5 (8 × 10^4 cells/mL) were seeded into a 96-well plate and allowed to adhere for 16 h to culture plates before the addition of the compounds.
(§4) Then, compounds were added at different concentrations (0.8–100 μM), and cells were further incubated for 24 h. Cells with no treatment were used as a negative control. After incubation, cells were treated with MTT solution for 3 h at 37 °C. Then, the MTT solution was removed, and 150 µL of DMSO was added to the wells. The absorbances were measured at 570 nm using a TECAN microplate reader (Infinite 200, Tecan, Salzburg, Austria). Viability data were reported as % of control (untreated cells) for each cell line.

Series [1] relates to B-CPAP thyroid cancer cell line. Description: MTT cell viability assay. The series is classed as cell-based. The settings on record: Homo sapiens, BCPAP; B-CPAP; MTT, 24 h; concentration required to inhibit cell proliferation by 50%; mean ± SD; read-out: CC50. As for the experimental part: as §1, §2, §3, §4
Series [2] has as its system K-1 thyroid cancer cell line. Description: MTT cell viability assay. To be noted: K-1; MTT, 24 h; concentration required to inhibit cell proliferation by 50%; mean ± SD; read-out: CC50. The class given is cell-based. As for the experimental part: as §1, §2, §3, §4
A general note: Formazan colour is commonly taken as a measure of viable cells.

Series [3] relates to TPC-1 thyroid cancer cell line. Description: MTT cell viability assay. The class given is cell-based. To be noted: Homo sapiens, TPC1; TPC-1; MTT, 24 h; concentration required to inhibit cell proliferation by 50%; mean ± SD; read-out: CC50. The method, then: as §1, §2, §3, §4
Series [4] deals with TPC-1 cells. Put plainly: Cell cycle analysis by flow cytometry (PI/RNase staining). The class given is cell-based. To be noted: 20 µM, 24 h, compared with untreated cells. The method, then: Among the potential mechanisms involved in the treatment of cancer, there is the arrest of the cell cycle. To detect whether the cytotoxicity of coumarins 2k and 2h resulted from cell cycle progression, the effects on the cell cycle of TPC-1 cells were analyzed by flow cytometry after labeling with PI (propidium iodide)/RNase Staining Buffer detection kit. […] According to apoptosis results, the cell cycle arrest could be responsible for the cytotoxicity in cancer cells. In the present study, it was observed that coumarin 2k determined cell arrest of TPC-1 cells in the G2/M phase, indicating the apoptotic mode of cell death and inhibition of DNA synthesis (S phase reduction). This finding is consistent with previous investigations reporting that coumarins able to induce cytotoxicity by inducing G2/M and S phases arrest in different cancer cell lines.
The cells were seeded (5 × 10^4 cells/mL) in six-well plates (Corning, Tewksbury, MA, USA). After 24 h, they were treated with coumarins (20 µM) for 24 h. Cell cycle analysis was performed by using the Invitrogen™ FxCycle™ PI/RNase Staining Solution (according to the manufacturer’s instructions, Thermo Fisher Scientific, Waltham, MA, USA), and then the DNA content was evaluated by flow cytometry (MoFloAstrios EQ, Beckman Coulter, Brea, CA, USA). The analysis of cell cycle phase distribution was accomplished via Kaluza Flow Cytometry Analysis Software (Software Version 1.2, Beckman Coulter) by setting 3 gates in each single parameter histogram: G0/G1, S, and G2/M.
(In flow cytometry, cells or beads pass a laser one at a time.)

For series [5], the system named is Nthy-ori-3-1 cells. The description is as above. The series is classed as cell-based. To be noted: control cells (Nthy-ori-3-1); 20 µM, 24 h.
Series [6] has as its system Nthy-ori-3-1 cells. Put plainly: Intracellular ROS production (H2-DCF-DA probe). The settings on record: only with 100 μM. The class given is cell-based. As for the experimental part:
(§5) It has been reported that coumarins and their derivatives are able to regulate the reactive oxygen species (ROS). For example, esculetin induces cytotoxicity in pancreatic cancer cells decreasing ROS and protein levels of the ROS-dependent transcription factor NF-κB [49]. On the other end, coumarins induce the generation and accumulation of ROS in cancer cells causing cell cycle arrest and apoptotic cell death. […] Conversely, 2h produces an antiproliferative response in TPC-1 cells by scavenging ROS. In an attempt of a better understanding of the results, such compounds were explored from an electrochemical point of view by means of cyclic voltammetry in anhydrous acetonitrile.
(§6) PTC-derived and control cells were seeded in 96-well plates (7.5 × 10^3/mL) to detect intracellular ROS production and grown for 24 h. Cells were then washed with PBS 1X solution and incubated for 30 min with 2′,7′-dichlorofluorescein diacetate probe (H2-DCF-DA) (Merck, Milan, Italy) (10 μM), as previously described. […] After 1 h of incubation, excess H2-DCF-DA was removed and replaced with PBS, and then ROS levels were measured by using a microplate reader (Infinite 200, Tecan, Salzburg, Austria) at a controlled temperature of 37 °C. The measurement was performed using an excitation of 490 nm and an emission of 520 nm. ROS production was evaluated for 2 h and monitored, taking readings at intervals of 5 min.

The subject of series [7] is TPC-1 cells. Description: Intracellular ROS production (H2-DCF-DA probe). The class given is cell-based. To be noted: 20 and 100 μM, 30 to 120 min. As for the experimental part: as §5, §6
Series [8] is described as follows: Cyclic voltammetry in anhydrous acetonitrile. The class given is physicochemical. The settings on record: 100 mV s−1, Pt pseudo-reference (Fc+/0 at +0.45 V). As for the experimental part: as §5
The electrochemical properties of compounds 2h and 2k were investigated by cyclic voltammetry (CV) technique under an inert atmosphere. The measurements have been carried out at 100 mV s^−1 with a three-electrode cell using a platinum tip as a working electrode, a platinized titanium net as a counter electrode, and a platinum wire as a pseudo-reference electrode. The electrochemical measurements were performed at room temperature using an AUTOLAB PGSTAT302N (Metrohm, Herisau, Switzerland) potentiostat/galvanostat controlled with the NOVA software. All the solutions were prepared in anhydrous degassed acetonitrile with 0.1 M [n-Bu4N][PF6] as supporting electrolyte: in this condition, the Fc^+/0 redox couple is centered at +0.45 V.

The mark [9] stands for this setting: Nthy-ori-3-1 normal thyroid cells, Nthy-ori-3-1.

Take `N#Cc1cc2cc(Br)cc(Br)c2oc1=O` [2h, 6,8-dibromo-2-oxo-2H-chromene-3-carbonitrile]: the CC50 at 24 h in “MTT cell viability assay” (MRC-5 lung fibroblasts, MRC-5) is greater than 100 µM; in “MTT cell viability assay” (setting [9]), greater than 100 µM. Besides, the CC50 in series [1] is greater than 100 µM; in series [2], 60 ± 3 µM; in series [3], 90 ± 3.5 µM. Besides, the “effect on G2/M phase cell population” value in the series with TPC-1 cells [4] is “same trend”. Also, the “effect on the cell cycle” value with Nthy-ori-3-1 cells [5] is “No effect on the cell cycle”. For the same compound, the “effect on ROS” value with Nthy-ori-3-1 cells [6] is reported as “antioxidant”. Moreover, the ROS generation entry in the series on TPC-1 cells [7] is given as “decreased ROS generation”. In series [8], this compound gave an oxidation peak potential of 0.6 V. This compound yielded a reduction feature potential in series [8] of −1.02 V.
For the compound `N#Cc1cc2cc(I)cc(I)c2oc1=O` [2k, 6,8-diiodo-2-oxo-2H-chromene-3-carbonitrile], the CC50 at 24 h in the series “MTT cell viability assay” (MRC-5 lung fibroblasts, MRC-5) is greater than 100 µM; in the series “MTT cell viability assay” (setting [9]) it was greater than 100 µM. Also, the CC50 in series [1] came out at 46 ± 0.2 µM; in [2] it was 57 ± 5 µM; in [3] it was 44 ± 5.5 µM. In addition, the “effect on G2/M phase cell population” value with TPC-1 cells [4] is “increase in TPC-1 cells in the G2/M phase”. Besides, the “effect on S phase cell population” value in the series with TPC-1 cells [4] is recorded as “decreases the cell population in the S phase”. In the series with Nthy-ori-3-1 cells [5], the “effect on the cell cycle” value is “No effect on the cell cycle”. The “effect on ROS” value in the series with Nthy-ori-3-1 cells [6] was “pro-oxidant”. Further, the ROS generation result in the series with TPC-1 cells [7] is given as “significant increase in ROS generation”. The oxidation peak potential in series [8] stood at 0.75 V. This compound displayed a reduction feature potential in series [8] of −0.95 V.

Broadly, the CC50 is the concentration that lowers cell viability or growth by half.
